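Growth conditions: 96-well plates. Treatment: test compound, 48 hours, 5 concentrations. Analysis: linear interpolation between bracketing concentrations; unreached endpoints set to highest concentration. The concentration for 50% growth inhibition is given as GI50.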 Activity calls are given as the source filed them. Rule as the data show it: active = GI50 up to about 1.1 µM and inactive = higher.
Legend:
Test in all cases: NCI-60 cell line screen, 48 h
[1] = test system: SK-MEL-5
[2] = test system: HCT-116
[3] = test system: NCI-H460
[4] = test system: ACHN
[5] = test system: SF-295
[6] = test system: HL-60
[7] = test system: HT-29
[8] = test system: SNB-75
[9] = test system: A498
[10] = test system: SN12C
[11] = test system: OVCAR-3
[12] = test system: OVCAR-8
[13] = test system: CAKI-1
[14] = test system: NCI-H522
[15] = test system: DU-145
[16] = test system: LOX IMVI
[17] = test system: HOP-92
[18] = test system: NCI/ADR-RES
[19] = test system: SF-539
[20] = test system: SR
[21] = test system: U-251
[22] = test system: MOLT-4
[23] = test system: CCRF-CEM
[24] = test system: UACC-62
[25] = test system: 786-0
[26] = test system: HOP-62
[27] = test system: MCF7
[28] = test system: TK-10
[29] = test system: MDA-N
[30] = test system: NCI-H23
[31] = test system: OVCAR-5
[32] = test system: Hs-578T
[33] = test system: MDA-MB-231
[34] = test system: SNB-19
[35] = test system: KM12
[36] = test system: SF-268
[37] = test system: RXF 393
[38] = test system: SK-MEL-28
[39] = test system: MDA-MB-435
[40] = test system: Malme-3M
[41] = test system: K562
[42] = test system: SK-OV-3
[43] = test system: SW-620
[44] = test system: T47D
[45] = test system: HCC 2998
[46] = test system: IGROV-1
[47] = test system: PC-3
[48] = test system: OVCAR-4
[49] = test system: EKVX
[50] = test system: HCT-15
[51] = test system: NCI-H226
[52] = test system: A549
[53] = test system: COLO 205
[54] = test system: UACC-257
[55] = test system: RPMI-8226
[56] = test system: UO-31
[57] = test system: SK-MEL-2
[58] = test system: M14

`CCCCCCCCCCCCCCCCCCOCC(O)COP(=O)(O)OCC1OC(n2ccc(N)nc2=O)C(O)C1O` (configuration not stated) was tested, and the GI50 [1] was 29.9 µM (inactive), the GI50 [2] was 10.9 µM (inactive) and the GI50 [3] was 3.69 µM (inactive). The GI50 [4] was 11.3 µM (inactive), the GI50 [5] was 22.7 µM (inactive) and the GI50 [6] was 9.84 µM (inactive). For the same compound, the GI50 [7] was 22.8 µM (inactive), the GI50 [8] was 13 µM (inactive) and the GI50 [9] was 11 µM (inactive). For the same compound, the GI50 [10] was 36.6 µM (inactive), the GI50 [11] was 43.5 µM (inactive) and the GI50 [12] was 6.31 µM (inactive). The GI50 [13] was 23.1 µM (inactive), the GI50 [14] was 13.4 µM (inactive) and the GI50 [15] was 98.2 µM (inactive). The GI50 [16] was 14.1 µM (inactive), the GI50 [17] was 19.9 µM (inactive) and the GI50 [18] was 19.1 µM (inactive). The GI50 [19] was 16.6 µM (inactive), the GI50 [20] was 17 µM (inactive) and the GI50 [21] was 11.9 µM (inactive). For the same compound, the GI50 [22] was 0.908 µM (active), the GI50 [23] was 0.56 µM (active) and the GI50 [24] was 23.9 µM (inactive). For the same compound, the GI50 [25] was 10.9 µM (inactive), the GI50 [26] was 11.6 µM (inactive) and the GI50 [27] was 22 µM (inactive). The GI50 [28] was 14.2 µM (inactive), the GI50 [29] was 93.8 µM (inactive) and the GI50 [30] was 26.1 µM (inactive). The GI50 [31] was 33.6 µM (inactive), the GI50 [32] was 36.4 µM (inactive) and the GI50 [33] was 25.8 µM (inactive). For the same compound, the GI50 [34] was 11.6 µM (inactive), the GI50 [35] was 17.1 µM (inactive) and the GI50 [36] was 16.9 µM (inactive). For the same compound, the GI50 [37] was 12.9 µM (inactive), the GI50 [38] was 57.5 µM (inactive) and the GI50 [39] was 45.4 µM (inactive). For the same compound, the GI50 [40] was 7.05 µM (inactive), the GI50 [41] was 28.2 µM (inactive) and the GI50 [42] was 66.8 µM (inactive). For the same compound, the GI50 [43] was 35.6 µM (inactive), the GI50 [44] was 62.5 µM (inactive) and the GI50 [45] was 22 µM (inactive). For the same compound, the GI50 [46] was 9.62 µM (inactive), the GI50 [47] was 6.01 µM (inactive) and the GI50 [48] was 28.3 µM (inactive). For the same compound, the GI50 [49] was 61.8 µM (inactive), the GI50 [50] was 15.5 µM and the GI50 [51] was > 100 µM (inactive). The GI50 [52] was 3.85 µM (inactive), the GI50 [53] was 10.9 µM (inactive) and the GI50 [54] was 24.8 µM (inactive). For the same compound, the GI50 [55] was 24.9 µM (inactive).

With `N=C(CSSCC(=N)NCC12CC3CC(CC(C3)C1)C2)NCC12CC3CC(CC(C3)C1)C2` the GI50 [1] was 20.2 µM (inactive), the GI50 [2] was 22.4 µM (inactive) and the GI50 [3] was 29.2 µM (inactive). For the same compound, the GI50 [4] was 13.3 µM (inactive), the GI50 [5] was 14.2 µM (inactive) and the GI50 [6] was 11 µM (inactive). For the same compound, the GI50 [7] was 13.6 µM (inactive), the GI50 [8] was 20.8 µM (inactive) and the GI50 [9] was 25.5 µM (inactive). The GI50 [10] was 15.7 µM (inactive), the GI50 [11] was 16.1 µM (inactive) and the GI50 [12] was 18 µM (inactive). The GI50 [13] was 18.7 µM (inactive), the GI50 [14] was 15.1 µM (inactive) and the GI50 [15] was 16.9 µM (inactive). The GI50 [17] was 16.3 µM (inactive), the GI50 [18] was 17.1 µM (inactive) and the GI50 [19] was 17.7 µM (inactive). For the same compound, the GI50 [21] was 14.3 µM (inactive), the GI50 [22] was 3.1 µM (inactive) and the GI50 [24] was 13.3 µM (inactive). The GI50 [25] was 29.9 µM (inactive), the GI50 [26] was 32.1 µM (inactive) and the GI50 [27] was 29.7 µM (inactive). For the same compound, the GI50 [28] was 18.8 µM (inactive), the GI50 [56] was 18.2 µM (inactive) and the GI50 [30] was 16 µM (inactive). The GI50 [31] was 17.7 µM (inactive), the GI50 [57] was 22.3 µM (inactive) and the GI50 [32] was 23.4 µM (inactive). For the same compound, the GI50 [33] was 2.12 µM (inactive), the GI50 [34] was 19.2 µM (inactive) and the GI50 [35] was 14.1 µM (inactive). For the same compound, the GI50 [36] was 37.7 µM (inactive), the GI50 [58] was 18.2 µM (inactive) and the GI50 [37] was > 100 µM (inactive). The GI50 [38] was 20.7 µM (inactive), the GI50 [39] was 13.8 µM (inactive) and the GI50 [40] was 16.8 µM (inactive). For the same compound, the GI50 [41] was 11.4 µM (inactive), the GI50 [42] was 17 µM (inactive) and the GI50 [43] was 17.5 µM (inactive). The GI50 [44] was 17.9 µM (inactive), the GI50 [46] was 15.9 µM (inactive) and the GI50 [47] was 14.9 µM (inactive). For the same compound, the GI50 [48] was 14.4 µM (inactive), the GI50 [50] was 12.2 µM and the GI50 [51] was 20.9 µM (inactive). For the same compound, the GI50 [52] was 13.7 µM (inactive), the GI50 [53] was 19.2 µM (inactive) and the GI50 [54] was 14.6 µM (inactive). The GI50 [55] was 2.33 µM (inactive).

From ChEMBL document CHEMBL1201862, “PubChem BioAssay data set” (2004)
